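1) Cells in 96-well plates. 2) Compound, 48 h, 5 concentrations. 3) Linear interpolation between surrounding doses. 4) Unreached endpoint = highest concentration. GI50 marks 50% less growth.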 Calls of active or inactive are those of the source. No stated cut-off is given here; in the data, active = GI50 up to about 1.1 µM and inactive = higher.
What was measured:
Experiment in all cases: growth of human tumour cells (NCI), 48 h
NCI-H522 = tested on: NCI-H522
M14 = tested on: M14
HCT-116 = tested on: HCT-116
HL-60 = tested on: HL-60
U-251 = tested on: U-251
EKVX = tested on: EKVX
CCRF-CEM = tested on: CCRF-CEM
786-0 = tested on: 786-0
PC-3 = tested on: PC-3
NCI/ADR-RES = tested on: NCI/ADR-RES
RXF 393 = tested on: RXF 393
COLO 205 = tested on: COLO 205
IGROV-1 = tested on: IGROV-1
SK-MEL-28 = tested on: SK-MEL-28
NCI-H460 = tested on: NCI-H460
SK-OV-3 = tested on: SK-OV-3
OVCAR-4 = tested on: OVCAR-4
OVCAR-8 = tested on: OVCAR-8
RPMI-8226 = tested on: RPMI-8226
SNB-75 = tested on: SNB-75

Measured: GI50

CN(C)c1ccc(/C=C(\C#N)C(N)=C(C#N)C#N)cc1
inactive: NCI-H522 > 100 µM | M14 30 µM | HCT-116 > 100 µM | HL-60 > 100 µM | U-251 > 100 µM | EKVX > 100 µM | CCRF-CEM > 100 µM | 786-0 > 100 µM | PC-3 > 100 µM | NCI/ADR-RES > 100 µM | RXF 393 > 100 µM | COLO 205 > 100 µM | IGROV-1 > 100 µM | SK-MEL-28 80 µM | NCI-H460 > 100 µM | SK-OV-3 > 100 µM | OVCAR-4 > 100 µM | OVCAR-8 > 100 µM

CC(C)(C)c1ccc(C(C)(C)C)c(N2C(=O)[C@@H]3[C@@H]4C=C[C@@H](C4)[C@]3(C)C2=O)c1
inactive: NCI-H522 16.1 µM | M14 19.5 µM | HCT-116 15.5 µM | HL-60 16.4 µM | RPMI-8226 14.7 µM | U-251 18.7 µM | EKVX 47.3 µM | CCRF-CEM 7.38 µM | 786-0 17.4 µM | PC-3 20.2 µM | NCI/ADR-RES 29.6 µM | RXF 393 15.5 µM | COLO 205 42.2 µM | IGROV-1 18.6 µM | SK-MEL-28 31.3 µM | NCI-H460 42 µM | SK-OV-3 > 100 µM | OVCAR-4 13.6 µM | OVCAR-8 14.6 µM

CSC1=Nc2ccccc2-c2nc3ccccc3cc2C1
inactive: NCI-H522 69.2 µM | M14 > 100 µM | HCT-116 > 100 µM | HL-60 76 µM | U-251 > 100 µM | EKVX > 100 µM | CCRF-CEM > 100 µM | 786-0 > 100 µM | PC-3 > 100 µM | NCI/ADR-RES > 100 µM | RXF 393 > 100 µM | COLO 205 > 100 µM | IGROV-1 > 100 µM | SK-MEL-28 > 100 µM | NCI-H460 > 100 µM | SK-OV-3 > 100 µM | OVCAR-4 > 100 µM | OVCAR-8 > 100 µM

O=C(OCc1ccccc1)N1CCCc2c(n(S(=O)(=O)c3ccccc3)c3ccccc23)C1
inactive: NCI-H522 29.1 µM | M14 > 100 µM | HCT-116 > 100 µM | HL-60 > 100 µM | RPMI-8226 > 100 µM | U-251 > 100 µM | EKVX > 100 µM | 786-0 > 100 µM | PC-3 > 100 µM | NCI/ADR-RES > 100 µM | RXF 393 53.8 µM | COLO 205 > 100 µM | IGROV-1 > 100 µM | SK-MEL-28 > 100 µM | NCI-H460 > 100 µM | SK-OV-3 > 100 µM | OVCAR-4 > 100 µM | OVCAR-8 > 100 µM

Cc1cc(NN)nc2[nH]nc(N)c12
inactive: NCI-H522 > 100 µM | M14 > 100 µM | HCT-116 > 100 µM | RPMI-8226 > 100 µM | U-251 > 100 µM | EKVX > 100 µM | SNB-75 > 100 µM | CCRF-CEM > 100 µM | 786-0 > 100 µM | PC-3 > 100 µM | NCI/ADR-RES > 100 µM | RXF 393 > 100 µM | COLO 205 > 100 µM | IGROV-1 > 100 µM | SK-MEL-28 > 100 µM | NCI-H460 > 100 µM | SK-OV-3 > 100 µM | OVCAR-4 > 100 µM | OVCAR-8 > 100 µM

CN1COCc2cc3cc4c(cc3nc21)OCCO4
inactive: NCI-H522 > 100 µM | M14 > 100 µM | HCT-116 93.3 µM | RPMI-8226 4.72 µM | U-251 > 100 µM | EKVX > 100 µM | SNB-75 > 100 µM | CCRF-CEM 81.7 µM | 786-0 > 100 µM | PC-3 91.8 µM | NCI/ADR-RES > 100 µM | RXF 393 > 100 µM | COLO 205 > 100 µM | IGROV-1 55 µM | NCI-H460 44.8 µM | SK-OV-3 > 100 µM | OVCAR-4 > 100 µM | OVCAR-8 > 100 µM

C=C1C[C@H](O)[C@H]2C(C[Se]c3ccccc3)C(=O)O[C@@H]2[C@H]2[C@H](C)C(O)C[C@@H]12 (stereo partly specified)
inactive: NCI-H522 17.5 µM | M14 31.5 µM | HCT-116 23.1 µM | RPMI-8226 23.9 µM | U-251 16.4 µM | EKVX 33.7 µM | SNB-75 31.8 µM | CCRF-CEM 24.8 µM | 786-0 33 µM | PC-3 22.7 µM | NCI/ADR-RES 20.2 µM | RXF 393 13.1 µM | COLO 205 50.7 µM | IGROV-1 25.3 µM | SK-MEL-28 76.2 µM | NCI-H460 34 µM | SK-OV-3 > 100 µM | OVCAR-4 38.1 µM | OVCAR-8 41.8 µM

CC1(C)OCC2OC3([C@@H]4OC(C)(C)O[C@H]4CO)OC(C)(C)OC3C2O1 (stereo partly specified)
inactive: M14 > 100 µM | HCT-116 > 100 µM | RPMI-8226 > 100 µM | U-251 > 100 µM | EKVX > 100 µM | SNB-75 > 100 µM | CCRF-CEM > 100 µM | 786-0 > 100 µM | PC-3 > 100 µM | NCI/ADR-RES > 100 µM | RXF 393 > 100 µM | COLO 205 > 100 µM | IGROV-1 > 100 µM | SK-MEL-28 > 100 µM | NCI-H460 > 100 µM | OVCAR-4 > 100 µM | OVCAR-8 > 100 µM

CSc1c(C(=O)Nc2ccccc2)c(N)nn1-c1ccccc1
inactive: M14 > 100 µM | HCT-116 > 100 µM | HL-60 > 100 µM | RPMI-8226 > 100 µM | U-251 > 100 µM | EKVX > 100 µM | SNB-75 > 100 µM | CCRF-CEM > 100 µM | 786-0 > 100 µM | PC-3 > 100 µM | NCI/ADR-RES > 100 µM | RXF 393 56.9 µM | COLO 205 > 100 µM | SK-MEL-28 > 100 µM | NCI-H460 > 100 µM | SK-OV-3 > 100 µM | OVCAR-4 > 100 µM | OVCAR-8 > 100 µM

O=C1CC(Sc2nc3ccc(I)cc3c(=O)n2Cc2ccccc2)C(=O)NN1 (stereo unspecified)
inactive: NCI-H522 1.94 µM | M14 19.6 µM | HCT-116 15.7 µM | HL-60 20 µM | RPMI-8226 17 µM | U-251 15.9 µM | EKVX 15.8 µM | SNB-75 11.7 µM | CCRF-CEM 8.28 µM | 786-0 15.1 µM | PC-3 17 µM | NCI/ADR-RES 20.2 µM | COLO 205 19.1 µM | IGROV-1 11.8 µM | SK-MEL-28 17.9 µM | NCI-H460 22.8 µM | SK-OV-3 16 µM | OVCAR-4 17.4 µM | OVCAR-8 14.4 µM

CC(C)C(C/C=C1\CC(CO)(COC(=O)c2ccccc2)OC1=O)C(C)C (stereo unspecified)
inactive: NCI-H522 21.6 µM | M14 14.8 µM | HCT-116 17.2 µM | U-251 19.1 µM | EKVX 14.9 µM | SNB-75 15.3 µM | CCRF-CEM 12.1 µM | 786-0 14.8 µM | PC-3 15.8 µM | NCI/ADR-RES 20.7 µM | RXF 393 23 µM | COLO 205 11.5 µM | IGROV-1 20.7 µM | SK-MEL-28 16.3 µM | NCI-H460 15.8 µM | SK-OV-3 28.1 µM | OVCAR-4 18.8 µM | OVCAR-8 19.2 µM

— ChEMBL document CHEMBL1201862, “PubChem BioAssay data set” (2004)
